In US20250099405A1, “COMPOSITIONS, METHODS, AND DEVELOPMENT OF ARID4B INHIBITORS” (University of Kentucky Research Foundation, priority 2022, published 2025):

Molecular target: T1, ARID4B (Homo sapiens, UniProt Q4LE39)
T1 construct: endogenous in cells; host or cells: MCF7
T1 sequence (Q4LE39 1-1312): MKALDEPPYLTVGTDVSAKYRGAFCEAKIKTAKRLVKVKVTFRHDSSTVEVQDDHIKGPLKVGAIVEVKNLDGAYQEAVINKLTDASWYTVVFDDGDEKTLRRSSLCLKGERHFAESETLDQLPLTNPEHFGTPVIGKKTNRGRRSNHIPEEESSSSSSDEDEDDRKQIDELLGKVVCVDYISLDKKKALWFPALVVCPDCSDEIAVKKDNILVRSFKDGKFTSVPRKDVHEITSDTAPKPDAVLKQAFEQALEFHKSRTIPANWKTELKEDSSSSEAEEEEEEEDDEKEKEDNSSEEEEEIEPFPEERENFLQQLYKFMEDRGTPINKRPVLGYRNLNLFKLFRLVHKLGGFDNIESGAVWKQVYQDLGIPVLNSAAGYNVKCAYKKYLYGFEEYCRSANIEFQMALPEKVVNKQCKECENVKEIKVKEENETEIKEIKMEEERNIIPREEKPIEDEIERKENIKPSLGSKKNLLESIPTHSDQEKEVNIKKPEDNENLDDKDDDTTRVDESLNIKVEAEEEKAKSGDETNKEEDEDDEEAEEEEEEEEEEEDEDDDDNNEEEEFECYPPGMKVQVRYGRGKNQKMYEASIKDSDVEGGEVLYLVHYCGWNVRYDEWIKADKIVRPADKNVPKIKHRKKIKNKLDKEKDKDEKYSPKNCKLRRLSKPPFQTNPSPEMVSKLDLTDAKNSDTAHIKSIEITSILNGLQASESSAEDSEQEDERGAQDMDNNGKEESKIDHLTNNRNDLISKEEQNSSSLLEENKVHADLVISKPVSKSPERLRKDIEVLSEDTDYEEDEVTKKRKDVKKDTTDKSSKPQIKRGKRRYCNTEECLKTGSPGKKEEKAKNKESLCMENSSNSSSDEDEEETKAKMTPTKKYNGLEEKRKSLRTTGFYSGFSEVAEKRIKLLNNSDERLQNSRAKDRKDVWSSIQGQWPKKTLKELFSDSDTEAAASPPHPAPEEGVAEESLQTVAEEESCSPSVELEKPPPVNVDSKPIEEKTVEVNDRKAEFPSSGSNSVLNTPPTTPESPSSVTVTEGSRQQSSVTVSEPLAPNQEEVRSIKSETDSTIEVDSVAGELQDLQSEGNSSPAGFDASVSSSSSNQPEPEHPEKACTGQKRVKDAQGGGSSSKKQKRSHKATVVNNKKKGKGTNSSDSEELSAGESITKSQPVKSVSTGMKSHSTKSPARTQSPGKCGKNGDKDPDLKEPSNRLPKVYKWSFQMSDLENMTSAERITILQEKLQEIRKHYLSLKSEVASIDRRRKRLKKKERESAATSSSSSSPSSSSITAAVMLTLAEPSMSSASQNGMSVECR
Experiment: Cellular thermal shift assay (CETSA), endogenous ARID4B in MCF7 cells
Type: cell-based
Details: 10 μM, 2 h, 49-52° C. without compound
Protocol: (B-C) show cells expressing HA-ARID4B (C) or HA-ARID4BIC (D) treated or not with ARD150 (10 μM) for 2 h were used for CESTA. […] (D-E) show cells expressing HA-ARID4B (D) or Flag-ARID4A (E) treated or not with RWR-18 (10 μM) for 2 h were used for CESTA. […] Data are means±SEM from three experiments. *P<0.05, **P<0.01, ns, not significant.
Using CETSA (cellular thermal shift assay) to examine whether ARD150 or RWR-18 binds to ARID4B, MCF7 cells treated or not with ARD150 or RWR-18 for 2 h were collected, followed by heating at 46, 49, 52, 55, and 58° C. to denature and precipitate ARID4B protein, cell lysis, removal of cell debris and aggregates by centrifugation, and finally detection of remaining thermostable ARID4B protein by western blot. The ARID4B aggregation temperatures without ARD150 were determined to be 49-52° C., but shifted to 52-55° C. after treatment with ARD150 and even more so with RWR-18 (FIG. 15A-D). To determine whether ARD150 and RWR-18 targets the chromodomain of ARID4B, CESTA was performed using chromodomain deletion mutant (ARID4BAC). HEK-293T cells expressing HA-ARID4B or HA-ARID4BAC were treated or not with ARD150 (10 μM) for 2 h and processed for CESTA.

COc1ccc(C(=O)NCCCN2CCOCC2)cc1OC [ARD150]
ARID4B aggregation temperatures: 52-55 °C
